Patent US9314026B2, “Heterocyclylpyri(mi)dinylpyrazole” (Bayer Intellectual Property GmbH, priority 2011, dated 2016)
Like-named read-outs stand apart in the source and are kept apart here.

Assay: determination of the log P values by HPLC on a reverse phase column (C18), EEC-Directive 79/831 Annex V.A8
Assay type: physicochemical
Experimental: Method A Note on the determination of the log P values and mass detection: The stated log P values were determined in accordance with EEC-Directive 79/831 Annex V.A8 by HPLC (High Performance Liquid Chromatography) on a reverse phase column (C18). […] The mass detection was effected with an […] system. Method B Note on the determination of the log P values and mass detection: The stated log P values were determined in accordance with EEC-Directive 79/831 Annex V.A8 by HPLC (High Performance Liquid Chromatography) on a reverse phase column (C18). […] The mass detection was effected with the Micronass ZQ2000 mass detector from Waters. Method C Note on the determination of the log P values and mass detection: The stated log P values were determined in accordance with EEC-Directive 79/831 Annex V.A8 by UPLC (Ultra Performance Liquid Chromatography) on a reverse phase column (C18). […] The mass detection was effected with the LCT Premier or SQD mass detector from Waters.

Row | Molecule | chromatographic logP (pH 2.7) | chromatographic logP (pH 2.3) | other results
1 | 3-iodo-5-methyl-2-phenyl-5,6-dihydro-4H-pyrrolo[1,2-b]pyrazole [[IV-7]] | – | – | LogP (pH 2.3) (pH 2.3, compounds of the type [IV]): 3.74; log P (pH 2.5) (pH 2.5, preparation examples in the text): 3.74
2 | O=C(C1CC1)N(C(=O)C1CC1)c1cc(-c2c(-c3ccc(F)cc3)nn3c2CCCC3)ccn1 [Example 14, N-(cyclopropylcarbonyl)-N-{4-[2-(4-fluorophenyl)-4,5,6,7-tetrahydropyrazolo[1,5-a]pyridin-3-yl]pyridin-2-yl}cyclopropanecarboxamide] | 3.28 | – | LogPA (Method A (HPLC, C18, acetonitrile/water with formic acid), compounds of the type [I]): 3.28
3 | COC(=O)N(C(=O)C1CC1)c1cc(-c2c(-c3ccc(F)cc3)nn3c2CCC3)ccn1 [Example 15, methyl (cyclopropylcarbonyl){4-[2-(4-fluorophenyl)-5,6-dihydro-4H-pyrrolo[1,2-b]pyrazol-3-yl]pyridin-2-yl}carbamate] | – | – | chromatographic logP: 2.54
4 | CCC(=O)N(C(=O)CC)c1cc(-c2c(-c3ccc(F)cc3)nn3c2CCC3C)ccn1 (centres unmarked) [Example 16, N-{4-[2-(4-fluorophenyl)-6-methyl-5,6-dihydro-4H-pyrrolo[1,2-b]pyrazol-3-yl]pyridin-2-yl}-N-propionylpropanamide] | – | – | chromatographic logP: 3.21
5 | CCC(=O)N(C(=O)C1CC1)c1cc(-c2c(-c3ccc(F)cc3)nn3c2CCCC3)ccn1 [Example 17, N-{4-[2-(4-fluorophenyl)-4,5,6,7-tetrahydropyrazolo[1,5-a]pyridin-3-yl]pyridin-2-yl}-N-propionylcyclopropanecarboxamide] | – | – | chromatographic logP: 3.22
6 | CCC(=O)N(C(=O)CC)c1cc(-c2c(-c3ccc(F)cc3)nn3c2CCCC3)ccn1 [Example 18, N-{4-[2-(4-fluorophenyl)-4,5,6,7-tetrahydropyrazolo[1,5-a]pyridin-3-yl]pyridin-2-yl}-N-propionylpropanamide] | – | – | chromatographic logP: 3.18
7 | Nc1cc(-c2c(-c3ccc(F)cc3)nn3c2CCC3)ccn1 [[II-1], 4-[2-(4-fluorophenyl)-5,6-dihydro-4H-pyrrolo[1,2-b]pyrazol-3-yl]pyridin-2-amine] | 1.02 | 1.02 | –
8 | Nc1cc(-c2c(-c3ccc(F)c(Cl)c3)nn3c2CCC3)ccn1 [[II-2], 4-[2-(3-chloro-4-fluorophenyl)-5,6-dihydro-4H-pyrrolo[1,2-b]pyrazol-3-yl]pyridin-2-amine] | 1.28 | 1.28 | –
9 | Nc1cc(-c2c(-c3ccc(F)c(F)c3)nn3c2CCC3)ccn1 [[II-3], 4-[2-(3,4-difluorophenyl)-5,6-dihydro-4H-pyrrolo[1,2-b]pyrazol-3-yl]pyridin-2-amine] | 1.08 | 1.08 | –
10 | CC1(C)OB(c2c(-c3ccc(F)cc3)nn3c2CCC3)OC1(C)C [[III-1], 2-(4-fluorophenyl)-3-(4,4,5,5-tetramethyl-1,3,2-dioxaborolan-2-yl)-5,6-dihydro-4H-pyrrolo[1,2-b]pyrazole] | 3.97 | – | –
11 | CC1(C)OB(c2c(-c3ccc(F)c(F)c3)nn3c2CCC3)OC1(C)C [[III-2], 2-(3,4-difluorophenyl)-3-(4,4,5,5-tetramethyl-1,3,2-dioxaborolan-2-yl)-5,6-dihydro-4H-pyrrolo[1,2-b]pyrazole] | 4.3 | – | –
12 | CC1(C)OB(c2c(-c3ccc(F)c(Cl)c3)nn3c2CCC3)OC1(C)C [[III-3], 2-(3-chloro-4-fluorophenyl)-3-(4,4,5,5-tetramethyl-1,3,2-dioxaborolan-2-yl)-5,6-dihydro-4H-pyrrolo[1,2-b]pyrazole] | 4.73 | – | –
13 | Fc1ccc(-c2nn3c(c2Br)CCC3)cc1 [[IV-1], 3-bromo-2-(4-fluorophenyl)-5,6-dihydro-4H-pyrrolo[1,2-b]pyrazole] | – | 3.21 | chromatographic logP (pH 7): 3.21
14 | Fc1ccc(-c2nn3c(c2Br)CCC3)cc1F [[IV-2], 3-bromo-2-(3,4-difluorophenyl)-5,6-dihydro-4H-pyrrolo[1,2-b]pyrazole] | – | 3.54 | chromatographic logP (pH 2.5): 3.54
15 | Fc1ccc(-c2nn3c(c2Br)CCC3)cc1Cl [[IV-3], 3-bromo-2-(3-chloro-4-fluorophenyl)-5,6-dihydro-4H-pyrrolo[1,2-b]pyrazole] | – | 4.01 | chromatographic logP (pH 2.5): 4.01
